PubChem BioAssay AID2060505 (Molecular Pharmacology Branch, DTP, NCI, 2025)
“And” between values parts separate entries of the source, which are not always exact repeats. Equal entries are not always repeated.

Tested on: 633275-114-R-J1-PDC complex spheroids, viability
Assay: Anticancer human tumor 633275-114-R-J1-PDC patient-derived endometrial adenocarcinoma cell line growth inhibition [GQUAD]
Conditions: for viability, T/C: stronger effect = lower value
From the text: DNA G-quadruplex Stabilizer Agents in Combinations in Complex Spheroids
A high-throughput screen of multi-cell type tumor spheroids was designed to identify active combinations of DNA G-quadruplex stabilizer agents and targeted small molecules. Complex spheroids include a stromal component modeled by human endothelial cells (HUVEC) and fibroblasts modeled by human mesenchymal stem cells (MSCs). The concentration ranges selected for each drug and investigational agent were based upon clinically achievable concentrations if the clinical Cmax of the agent was known.
Compounds. The drugs and investigational agents: pidnarulex (CX-5461; NSC782164), APTO-253 (NSC789042), BRACO-19 (NSC847499), peposertib (NSC802822), ceralasertib (NSC780249), elimusertib (NSC800525), camonsertib (NSC841442), AZD-1390 (NSC803789), olaparib (NSC753686), talazoparib (NSC767125), ART-558 (NSC835418), sotorasib (NSC818433), MRTX-1133 (NSC836407), SN-38 (NSC673596), topotecan (NSC609699), etoposide (NSC141540), doxorubicin (NSC123127), gemcitabine (NSC613327), 5-fluorouracil (NSC19893), paclitaxel (NSC125973), vemurafenib (NSC761431), panobinostat (NSC761190), R-306465 (JNJ-16241199; NSC773264), adavosertib (NSC754352), TP-3654 (NSC805149), carboplatin (NSC241240), KSQ-4279 (NSC840948), and staurosporine (NSC755774) were obtained from the National Cancer Institute (NCI) Developmental Therapeutics Program Chemical Repository (34). The FDA-approved anticancer drug set is available from the NCI Developmental Therapeutics Program. […] The stock solutions were prepared in dimethyl sulfoxide (DMSO, Sigma-Aldrich, St. Louis, MO, cat. D2650) at 800-fold the tested concentration and stored at -70 degrees C prior to their use. All drugs and investigational agents were tested over a range starting from a high concentration at or near the clinical Cmax and decreasing in half-log increments. If the clinical Cmax for an agent had not been determined, the highest concentration tested was 10 microM.
2.3 Cell Culture. All cells were maintained in an incubator at 37 degrees C and 5% CO2 with 95% humidity. The PDC lines were cultured according to standard operating procedures established by the NCI PDMR. All PDCs were thawed and cultured in Matrigel-coated flasks prepared with a working solution of 1X Ham's F-12 nutrient mix, without supplementation (Invitrogen, cat. 11765054), 100 U/mL penicillin-streptomycin (Invitrogen, cat. 15140122), and 2.5% Matrigel (Corning Inc., cat. 354248) for the first three passages. The 857933-349-R-J2-PDC line was cultured in 6C/Colon 1B media, which includes advanced DMEM/F-12 (Thermo Fisher Scientific, cat. 12634028), 10 mM HEPES (Thermo Fisher Scientific, cat. 15630080), 1X GlutaMAX supplement (Thermo Fisher Scientific, cat. 35050061), 0.1 mg/mL primocin (InvivoGen, cat. ant-pm-2), 10% defined fetal bovine serum, heat inactivated (HyClone Laboratories Inc., cat. SH30070.03HI), 50% L-WRN conditioned media (ATCC, cat. CRL-3276), 1.25 mM N-Acetyl-L-cysteine (Sigma-Aldrich, cat. A9165), 10 mM nicotinamide (Sigma-Aldrich, cat. N0636), 1X B-27 supplement (Thermo Fisher Scientific, cat. 17504044), 1X N-2 supplement (Thermo Fisher Scientific, cat. 17502048), 10 microM Y-27632 dihydrochloride (Tocris Bioscience, cat. 1254), and 50 ng/mL human EGF recombinant protein (Thermo Fisher Scientific, cat. PHG0311). The 485176-168-R4-J1-PDC line was cultured in Panc media, which includes all 6C/Colon 1B media components plus 100 ng/mL human FGF-10 (Thermo Fisher Scientific, cat. 100-26), 500 nM SB-431542 (Selleckchem, cat. S1067), and gastrin (Tocris, cat. 3006).
[…]

[1] = compound alone, run of 03/18/2024
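Further: spheroids exposed to the agents for seven days.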
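Wherever viability, T/C is given: percent of DMSO vehicle control viability which is 100%.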

Row | Structure (SMILES) | IC50 (curve of compound) | IC50 [1] | IC50 (compound alone, run of 03/26/2024) [nM] | viability, T/C (compound 0.0316 µM) | viability, T/C (compound 0.1 µM) | viability, T/C (compound 0.316 µM) | viability, T/C (compound 1 µM) | viability, T/C (compound 3.16 µM) | viability, T/C (compound 10 µM) | viability, T/C (compound 0.000999 µM) | viability, T/C (compound 0.00316 µM) | viability, T/C (compound 0.00999 µM) | viability, T/C (compound 0.0999 µM)
1 | COc1cc(C2c3cc4c(cc3C(OC3OC5COC(C)OC5C(O)C3O)C3COC(=O)C23)OCO4)cc(OC)c1O (configuration not stated) | 442 nM and 384 nM and 466 nM | – | – | 90.9% and 82.6% and 84.5% | 71.1% and 64.9% and 66.1% | 50.1% and 51.4% and 46.9% | 44.4% and 42.1% and 49.9% | 38.2% (2×) and 36.1% | 32.7% and 30.8% and 28.3% | – | – | – | –
2 | COc1cccc2c1C(=O)c1c(O)c3c(c(O)c1C2=O)CC(O)(C(=O)CO)CC3OC1CC(N)C(O)C(C)O1 (configuration not stated) | 87.6 nM and 48.1 nM and 74.7 nM | – | – | 62% and 55.6% and 60.7% | 45.2% and 39% and 44.2% | 35.7% and 31.5% and 33% | 21.9% and 16.8% and 22.1% | 1.91% and 1.16% and 1.41% | 2% and 1.77% and 1.5% | – | – | – | –
3 | Cc1[nH]c2ccc(F)cc2c1-c1nc2c3cccnc3c3ncccc3c2[nH]1 | – | > 10000 nM | > 10000 | 104% [middle of 12 runs] | 102% [middle of 12 runs] | 99.1% [middle of 12 runs] | 92.6% [middle of 12 runs] | 73% [middle of 12 runs] | 72.2% [middle of 12 runs] | – | – | – | –
4 | Cc1[nH]c2ccccc2c1CCNCc1ccc(/C=C/C(=O)NO)cc1 | 61.3 nM and 59.6 nM and 61.1 nM | – | – | 61.1% and 69.2% and 57.3% | – | 18.1% and 22.3% and 22.9% | – | – | – | 101% and 103% and 102% | 85.1% and 98.6% and 81.7% | 77.8% and 64.2% and 81.9% | 43% and 39.6% and 43.9%
5 | Nc1ccn(C2OC(CO)C(O)C2(F)F)c(=O)n1 (configuration not stated) | < 31.6 nM | – | – | 30.6% and 26.5% and 26.6% | 24.7% and 22.3% and 23.2% | 28.7% and 23.9% and 24.1% | 25.4% and 23.2% and 21.9% | 27.3% and 23.6% and 20.7% | 21.7% and 17.1% and 18.9% | – | – | – | –
6 | O=C(NO)c1cnc(N2CCN(S(=O)(=O)c3ccc4ccccc4c3)CC2)nc1 | 177 nM and 198 nM and 252 nM | – | – | 75.3% and 69.1% and 84.1% | 61.1% and 65.8% and 72.9% | 38.8% and 38.6% and 43.8% | 21.8% (2×) and 19.6% | 12.8% and 12.7% and 13.8% | 5.19% and 5.98% and 4.22% | – | – | – | –
7 | O=C(c1cc(Cc2n[nH]c(=O)c3ccccc23)ccc1F)N1CCN(C(=O)C2CC2)CC1 | > 10000 nM | – | – | 101% and 96.1% and 100% | 94.1% and 84.6% and 94% | 86.2% and 95.4% and 96.1% | 85.2% and 91.4% and 78.4% | 74.8% and 71.8% and 75.2% | 58.2% and 52.5% and 61.2% | – | – | – | –
8 | O=c1[nH]cc(F)c(=O)[nH]1 | > 10000 nM | – | – | 103% (2×) and 98.4% | 90.1% and 99.8% and 94.7% | 91.3% and 105% and 101% | 95.9% and 91.8% and 94.2% | 89.3% and 98.9% and 91.8% | 77.6% and 72% and 67.4% | – | – | – | –

Further lines, with some results ahead:

Row | IC50 (curve of compound) | IC50 [1] | IC50 (compound alone, run of 03/26/2024) [nM] | Structure (SMILES) | viability, T/C (compound 0.0316 µM) | viability, T/C (compound 0.1 µM) | viability, T/C (compound 0.316 µM) | viability, T/C (compound 1 µM) | viability, T/C (compound 3.16 µM) | viability, T/C (compound 10 µM) | viability, T/C (compound 0.000999 µM) | viability, T/C (compound 0.00316 µM) | viability, T/C (compound 0.00999 µM) | viability, T/C (compound 0.0999 µM)
9 | 4050 nM and 4540 nM and 3480 nM | – | – | COc1ccc([C@@H](O)c2cc(-c3ncnc4cc(N5CCOCC5)ccc34)c(F)cc2Cl)nn1 | 94.5% and 95% and 93.8% | 98.8% and 89.7% and 92.3% | 85.5% and 89.3% and 86.5% | 73.6% and 74.7% and 67.5% | 54.6% and 53.4% and 53.7% | 35.3% and 42.5% and 31.2% | – | – | – | –
10 | > 10000 nM | – | – | COc1ncnc(C2CC2)c1-c1ncc2cnn(Cc3ccc(-c4nc(C(F)(F)F)cn4C(C)C)cc3)c2n1 | 91.5% and 91.7% and 98.3% | 95.1% and 89.5% and 100% | 86.6% and 85.3% and 100% | 90.3% and 101% and 82.7% | 98% and 106% and 95.6% | 85% and 87.1% and 84.9% | – | – | – | –
11 | > 10000 nM | – | – | Cc1cccc(N(C)C(=O)C2C(O)CCN2c2nc(C)cc(C(F)(F)F)c2C#N)c1 (configuration not stated) | 104% and 106% and 102% | 87.3% and 93.7% and 107% | 96.6% and 105% and 93% | 99.8% and 93.9% and 87.2% | 104% and 103% and 98.8% | 96.2% and 95.4% and 92.5% | – | – | – | –
12 | – | 187 nM [middle of 12 runs] | – | Cc1cnc(CNC(=O)c2c(=O)c3ccc(N4CCCN(C)CC4)nc3n3c2sc2ccccc23)cn1 | 66.5% [middle of 12 runs] | 51.1% [middle of 12 runs] | 46.2% [middle of 11 runs] | 41.8% [middle of 12 runs] | 39% [middle of 12 runs] | 33.2% [middle of 12 runs] | – | – | – | –
13 | > 316 nM | – | – | Cn1ncnc1[C@H]1c2n[nH]c(=O)c3cc(F)cc(c23)N[C@@H]1c1ccc(F)cc1 | 79% (2×) and 83.2% | – | 56.5% and 57.2% and 61.5% | – | – | – | 101% and 100% and 95.7% | 97.5% and 87.7% and 88.7% | 87.6% and 88.2% and 102% | 69.5% and 71% and 65.5%
